Toxic doses and inconclusive results are not listed. Cut-off read from the data, not from the text of the source: active = T/C of 150% or more; inactive = T/C below 125%.
System: L1210 leukemia ip in BDF1 mice, survival T/C
Assay: NCI In Vivo Anticancer Drug Screen. Data for tumor model L1210 Leukemia (intraperitoneal) in B6D2F1 (BDF1) mice
Details: endpoint: mean survival time, higher = longer survival
Procedure, shortened: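 Tumor cells were implanted, animals were treated, and survival was followed. The result divides the treated measurement by the vehicle-control measurement.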

[1] = dose: 100.0 mg/kg/injection, schedule: Q04DX002 (ip), vehicle: Klucel (hydroxypropylcellulose) (HPC)
[2] = dose: 200.0 mg/kg/injection, schedule: Q04DX002 (ip), vehicle: Klucel (hydroxypropylcellulose) (HPC)
[3] = dose: 400.0 mg/kg/injection, schedule: Q04DX002 (ip), vehicle: Klucel (hydroxypropylcellulose) (HPC)
[4] = dose: 100.0 mg/kg/injection, schedule: Q04DX003 (ip), vehicle: Klucel (hydroxypropylcellulose) (HPC)
[5] = dose: 200.0 mg/kg/injection, schedule: Q04DX003 (ip), vehicle: Klucel (hydroxypropylcellulose) (HPC)
[6] = dose: 400.0 mg/kg/injection, schedule: Q04DX003 (ip), vehicle: Klucel (hydroxypropylcellulose) (HPC)
[7] = dose: 100.0 mg/kg/injection, schedule: Q01DX001 (ip), vehicle: saline with Tween-80
[8] = dose: 200.0 mg/kg/injection, schedule: Q01DX001 (ip), vehicle: saline with Tween-80
[9] = dose: 100.0 mg/kg/injection, schedule: Q04DX003 (ip), vehicle: saline with Tween-80
[10] = dose: 200.0 mg/kg/injection, schedule: Q04DX003 (ip), vehicle: saline with Tween-80
[11] = dose: 400.0 mg/kg/injection, schedule: Q04DX003 (ip), vehicle: saline with Tween-80

Measured: T/C

O=C(C1=CC(c2ccccc2)=Nc2ccccc2N1)c1ccccc1
inactive: dose: 100.0 mg/kg/injection, schedule: Q04DX003 (ip), vehicle: other 89 % of control | dose: 200.0 mg/kg/injection, schedule: Q04DX003 (ip), vehicle: other 110 % of control | dose: 400.0 mg/kg/injection, schedule: Q04DX003 (ip), vehicle: other 94 % of control

CCc1cccc(CC)c1NC(=O)c1ccccc1Cl
inactive: [1] 102 % of control | [2] 97 % of control | [3] 94 % of control

CC(C)(C)OC(=O)NOC(=O)c1ccc([N+](=O)[O-])cc1
inactive: [1] 104 % of control | [2] 96 % of control | [3] 107 % of control

COc1cc(C)n2nnnc2n1
inactive: dose: 25.0 mg/kg/injection, schedule: Q01DX001 (ip), vehicle: saline 91 % of control | dose: 50.0 mg/kg/injection, schedule: Q01DX001 (ip), vehicle: saline 96 % of control | dose: 100.0 mg/kg/injection, schedule: Q01DX001 (ip), vehicle: saline 96 % of control

CCC(=O)c1ccc2ccccc2c1
inactive: [4] 100 % of control | [5] 104 % of control | [6] 100 % of control

CC1CCC2(OC1)OC1CC3C4CCC5CC(=O)CCC5(C)C4CCC3(C)C1C2C (stereo not given)
inactive: [1] 102 % of control | [2] 105 % of control | [3] 94 % of control

N#C/C(=C\c1cccc(N)c1)c1ccccc1
inactive: [7] 100 % of control | [8] 95 % of control

Cc1ccc(NS(=O)(=O)c2ccccc2)c(C)c1
inactive: dose: 100.0 mg/kg/injection, schedule: Q01DX009 (ip), vehicle: Klucel (hydroxypropylcellulose) (HPC) 99 % of control | [4] 104 % of control | dose: 200.0 mg/kg/injection, schedule: Q01DX009 (ip), vehicle: Klucel (hydroxypropylcellulose) (HPC) 99 % of control | [5] 95 % of control | dose: 400.0 mg/kg/injection, schedule: Q01DX009 (ip), vehicle: Klucel (hydroxypropylcellulose) (HPC) 94 % of control | [6] 98 % of control

C[n+]1ccn2ccccc21
inactive: dose: 50.0 mg/kg/injection, schedule: Q01DX001 (ip), vehicle: saline with Tween-80 104 % of control | [7] 109 % of control

COc1ccc(-n2c(=S)[nH]c3ccc(C)cc3c2=O)cc1
inactive: [9] 92 % of control | [10] 87 % of control | [11] 90 % of control

CC(C)(C)CC(=O)OCCC[N+](C)(C)C
inactive: dose: 25.0 mg/kg/injection, schedule: Q01DX009 (ip), vehicle: water 104 % of control | dose: 50.0 mg/kg/injection, schedule: Q01DX009 (ip), vehicle: water 106 % of control

COc1ccc(C2NC(=O)CCC2N)cc1OC (stereo not given)
inactive: [7] 99 % of control | [8] 101 % of control | dose: 400.0 mg/kg/injection, schedule: Q01DX001 (ip), vehicle: saline with Tween-80 95 % of control

O=C(Nc1cccc(F)c1)Oc1ccc(OCc2ccccc2)cc1
inactive: dose: 100.0 mg/kg/injection, schedule: Q04DX002 (ip), vehicle: saline 101 % of control | dose: 200.0 mg/kg/injection, schedule: Q04DX002 (ip), vehicle: saline 90 % of control | dose: 400.0 mg/kg/injection, schedule: Q04DX002 (ip), vehicle: saline 90 % of control

CCCC(C)(C)SSC(C)(C)CCC
inactive: dose: 100.0 mg/kg/injection, schedule: Q01DX009 (ip), vehicle: saline with Tween-80 98 % of control | [9] 103 % of control | dose: 200.0 mg/kg/injection, schedule: Q01DX009 (ip), vehicle: saline with Tween-80 96 % of control | [10] 110 % of control | [11] 117 % of control

CCCCCCCCCC1CCC(C(=O)O)CC1 (stereo not given)
inactive: dose: 75.0 mg/kg/injection, schedule: Q01DX009 (ip), vehicle: Klucel (hydroxypropylcellulose) (HPC) 105 % of control | dose: 150.0 mg/kg/injection, schedule: Q01DX009 (ip), vehicle: Klucel (hydroxypropylcellulose) (HPC) 96 % of control | dose: 300.0 mg/kg/injection, schedule: Q01DX009 (ip), vehicle: Klucel (hydroxypropylcellulose) (HPC) 98 % of control

COc1ccc(C(=O)P(=O)(OC)OC)cc1
inactive: [9] 106 % of control | [10] 104 % of control | [11] 98 % of control

— PubChem BioAssay AID248 (DTP/NCI, 2004)
